The results in this text go back to US20250339504A1, “CANCER VACCINE WITH USE OF COMMON CANCER ANTIGEN COCKTAIL, TCR/CAR-T CELL THERAPEUTIC, COMPANION DIAGNOSTIC METHOD, AND METHOD FOR DIAGNOSING RISK OF CANCER ONSET BY DETECTING CIRCULATING TUMOR CELLS” (National Cancer Center, priority 2022, published 2025).

In assay [1] the test system is HLA-A*02:01 transgenic mice. The assay can be described thus: Peptide vaccine CTL induction, IFN-γ ELISpot, HLA-A*02:01 Tgm. Type of assay: in vivo. The conditions noted are these: HLA-A*02:01-restricted short peptide vaccine once per week, three times, splenocytes. Here is the method:
(§1) The predicted antigen peptides were evaluated on the capability of inducing CTLs by using transgenic mice with an HLA gene introduced therein. Each peptide was dissolved in dimethyl sulfoxide (DMSO, FUJIFILM Wako Pure Chemical Corporation) at 10 mg/ml, and HLA transgenic mice were immunized with the resultant together with an adjuvant every week, three times in total. One week after that, the spleens were extracted, and the productions of IFN-γ were evaluated through IFN-γ ELISpot assay.
(§2) In ELISpot assay, CD8-positive T cells were isolated from splenocytes of immunized mice by means of an MACS, and suspended at 1×10^5 cells/well, and the resultant was used as effector cells. Splenocytes of unimmunized mice were subjected to radiation (100 kV, 10 mA, 100 Gy), and suspended at a concentration of 2×10^6 cells/well in Final medium supplemented with any one of the peptides at a concentration of 20 ug/ml, and the resultant was used as target cells.
(§3) FIG. 14, FIG. 15, and Table 1 show identification of multiple peptides each capable of inducing CD8-positive killer T cells (CTLs) reactive with the peptide in splenocytes of mice systemically expressing human HLA-A*24:02 or HLA-A*02:01 in their cells by screening, wherein a peptide vaccine of peptides predicted to be presented by HLA-A*24:02 or HLA-A*02:01 and synthesized from the amino acid sequences of the ten common cancer antigen full-length proteins was administered once per week, three times in total. The rates of inducing CTLs reactive with those peptides were 30 peptides in the 72 HLA-A*24:02-restricted common cancer antigen short peptides, and 38 peptides in the 73 HLA-A*02:01-restricted common cancer antigen short peptides; 68 peptides in the 145 peptides in total.

Assay [2] has as its system HLA-A*02:01 Tgm. In words: Long peptide vaccine, IFN-γ ELISpot, HLA-A*02:01 Tgm. The format is in vivo, mice. The conditions noted are these: long peptide (15 to 21 mer) containing the short peptide, CTLs reactive with the short peptide. The method, then:
as §2

The test system of assay [3] is HLA-A*24:02 transgenic mice. The assay can be described thus: Peptide vaccine CTL induction, IFN-γ ELISpot, HLA-A*24:02 Tgm. The format is in vivo. The conditions noted are these: HLA-A*24:02-restricted short peptide vaccine once per week, three times, splenocytes. Here is the method: as §1, §2, §3
The test system of assay [4] is HLA-A*24:02 Tgm. In words: Long peptide vaccine, IFN-γ ELISpot, HLA-A*24:02 Tgm. The format is in vivo, mice. The conditions noted are these: long peptide (15 to 21 mer) containing the short peptide, CTLs reactive with the short peptide. The method, then:
as §2

Regarding ILMVFSIWL [CA02 95], the CTL induction entry in assay [1] was “Yes”. The Long peptide reaction result in assay [2] was “Yes”.

As for YSYAGDNIV [CLDN1-A02-5], the CTL induction entry in assay [1] is listed as “Yes”.

For YLIGHGTKV [CA02 122], in assay [1], the CTL induction result is listed as “Yes”.

FIFHKDLCQA [CA02 101]: the CTL induction entry in assay [1] is recorded as “Yes”. Moreover, the Long peptide reaction result in assay [2] is recorded as “No”.

GWAAASLCL [CLDN1-A24-7]: in assay [3], the CTL induction entry is reported as “Yes”. Further, in assay [4], the Long peptide reaction entry is “No”.

With SYMAMIQFAI [CA24 34], in assay [3], the CTL induction result is reported as “Yes”. Further, the Long peptide reaction entry in assay [4] is “No”.

ILPYCRPTF [CA24 98]: the CTL induction entry in assay [3] is listed as “Yes”. Moreover, the Long peptide reaction result in assay [4] was “Yes”.

Consider ALFTGWAAA [CLDN1-A02-2], for which, in assay [1], the CTL induction result was “Yes”. In assay [2], the Long peptide reaction result is on record as “No”.

As to RYLTLDQVF [CA24 31], the CTL induction entry in assay [3] is on record as “Yes”. Besides, the Long peptide reaction entry in assay [4] is reported as “No”.

Consider WYGNRIVQEF [CLDN1-A24-2], for which, in assay [3], the CTL induction entry is “Yes”. Also, in assay [4], the Long peptide reaction entry is listed as “No”.

Turning to VIADRPPPV [CA02 97], in assay [1], the CTL induction entry is listed as “Yes”. Further, in assay [2], the Long peptide reaction result is “Yes”.

Consider FTYEDPNEAV [CA02 127], for which, in assay [1], the CTL induction entry is reported as “Yes”.

Turning to YGNRIVQEF [CLDN1-A24-4], in assay [3], the CTL induction result was “Yes”. In assay [4], the Long peptide reaction result is given as “No”.

Take FLIIQNAAV [A02-GPC3-12]: in assay [1], the CTL induction result was “Yes”. For the same sequence, in assay [2], the Long peptide reaction entry was “No”.

As for “KLCGPYEKF [CA24 23, hHSP105α HLA-A*24:02 short peptide]”, the CTL induction entry in assay [3] is listed as “peptide-specific IFN-γ production had been found”.

Turning to YIIEAFSHA [CA02 91], the CTL induction result in assay [1] was “Yes”.

In the case of LLTPVPSLV [LAT1-A02-2], the CTL induction result in assay [1] is on record as “Yes”.

On to ILSMIHPQL [LAT1-A02-4], for which, in assay [1], the CTL induction entry is “Yes”. Moreover, the Long peptide reaction result in assay [2] is “No”.

With FFTDVSLYI [A24-GPC3-10], the CTL induction result in assay [3] was “Yes”.

FIFHKDLCQ [CA02 103]: in assay [1], the CTL induction entry is reported as “Yes”. Also, in assay [2], the Long peptide reaction entry is recorded as “No”.

Consider MLVAAIQSA [CA02 86], for which the CTL induction entry in assay [1] is on record as “Yes”. Also, the Long peptide reaction entry in assay [2] is listed as “No”.

For the sequence “PYPEAKIGRF [CA24 24, hHSP105α HLA-A*24:02 short peptide]”, in assay [3], the CTL induction entry is “peptide-specific IFN-γ production had been found”.

With AFEFVGEFF [A24-GPC3-17], the CTL induction result in assay [3] is listed as “Yes”. In addition, the Long peptide reaction result in assay [4] is recorded as “No”.

Consider FLAELAYDL [CA02 11], for which the CTL induction result in assay [1] is on record as “Yes”. Besides, in assay [2], the Long peptide reaction result was “Yes”.

Regarding IYTWIEDHF [CA24 32], the CTL induction entry in assay [3] is recorded as “Yes”. Also, in assay [4], the Long peptide reaction entry is reported as “No”.

Regarding LLQKIEVPL [CA02 24], the CTL induction result in assay [1] is on record as “Yes”.

HYAKIAADF [CA24 21]: the CTL induction result in assay [3] was “Yes”. Further, the Long peptide reaction entry in assay [4] was “No”.

With FFTDVSLYI [A02-GPC3-18], in assay [1], the CTL induction result is recorded as “Yes”.

Turning to GLDEEQHSV [CA02 121], in assay [1], the CTL induction entry is recorded as “Yes”. The Long peptide reaction entry in assay [2] is on record as “Yes”.

Regarding “NYGIYKQDL [CA24 25, hHSP105α HLA-A*24:02 short peptide]”, in assay [3], the CTL induction entry is listed as “peptide-specific IFN-γ production had been found”.

On to AYMLEVYGSL [LAT1-A24-5], for which, in assay [3], the CTL induction entry was “Yes”. Besides, in assay [4], the Long peptide reaction result was “No”.

SLVSNVNIEL [CA02 83]: the CTL induction entry in assay [1] is “Yes”. Also, the Long peptide reaction result in assay [2] is listed as “Yes”.

Turning to EFGQALFTGW [CLDN1-A24-5], the CTL induction entry in assay [3] is given as “Yes”. In assay [4], the Long peptide reaction result was “No”.

Regarding TFDSSCHFF [CA24 53], in assay [3], the CTL induction entry was “Yes”. Further, the Long peptide reaction result in assay [4] was “No”.

On to VLDSLVSNV [CA02 81], for which the CTL induction entry in assay [1] was “Yes”.

In the case of QLLTPVPSL [LAT1-A02-1], the CTL induction result in assay [1] is given as “Yes”. In addition, in assay [2], the Long peptide reaction result is “No”.

For the sequence VMSWIIPVF [LAT1-A24-6], the CTL induction entry in assay [3] is given as “Yes”.

For RIYDMENVLL [A02-GPC3-10], the CTL induction entry in assay [1] was “Yes”.

Turning to LQLLGFILA [CLDN1-A02-6], the CTL induction result in assay [1] is “Yes”.

For the sequence FLLCLAGRAL [CA02 56], the CTL induction result in assay [1] is listed as “Yes”. In addition, the Long peptide reaction result in assay [2] is given as “No”.

As to KYFTNCKQW [CA24 85], in assay [3], the CTL induction entry is “Yes”.

As to GQFTVIQLV [CA02 126], the CTL induction result in assay [1] is on record as “Yes”.

Turning to IVMWEVMSF [CA24 127], the CTL induction result in assay [3] is listed as “Yes”.

With YIFPVHWQF [CA24 52], in assay [3], the CTL induction entry is reported as “Yes”. Also, the Long peptide reaction entry in assay [4] is “No”.

Regarding YMLEVYGSL [LAT1-A02-5], the CTL induction entry in assay [1] is reported as “Yes”. Further, the Long peptide reaction result in assay [2] was “No”.

Turning to DFSGLLEKC [CA02 104], the CTL induction result in assay [1] is “Yes”. For the same sequence, the Long peptide reaction entry in assay [2] is on record as “No”.

KYWREYILSL [A24-GPC3-06]: the CTL induction entry in assay [3] is “Yes”. The Long peptide reaction result in assay [4] is reported as “No”.

For the sequence CYAELGTTI [LAT1-A24-2], the CTL induction entry in assay [3] is recorded as “Yes”. The Long peptide reaction result in assay [4] is “Yes”.

In the case of YYICQTLNV [CA24 97], in assay [3], the CTL induction entry is reported as “Yes”. For the same sequence, the Long peptide reaction result in assay [4] was “No”.

In the case of MYIFPVHWQF [CA24 51], the CTL induction result in assay [3] is “Yes”. Further, the Long peptide reaction entry in assay [4] is “No”.

In the case of VLLGLFSTI [CA02 15], the CTL induction result in assay [1] is reported as “Yes”. For the same sequence, the Long peptide reaction result in assay [2] was “Yes”.

Consider SYGIVMWEV [CA24 124], for which the CTL induction result in assay [3] was “Yes”. The Long peptide reaction entry in assay [4] was “Yes”.

On to HFFATKCTL [CA24 55], for which the CTL induction entry in assay [3] is given as “Yes”.

Turning to KMKPLLPRV [CA0233], in assay [1], the CTL induction entry is listed as “Yes”.

As to HLIDKVISTI [CA02 82], the CTL induction entry in assay [1] was “Yes”.

Turning to KYVCVGTNM [CA24 95], the CTL induction result in assay [3] is given as “Yes”.

As for DFSGLLEKC [CA24 102], in assay [3], the CTL induction result is given as “Yes”. For the same sequence, the Long peptide reaction entry in assay [4] is “No”.

For AYLEVTDVI [CA24 91], the CTL induction entry in assay [3] is “Yes”.

On to ADFSGLLEKC [CA24 105], for which, in assay [3], the CTL induction result is “Yes”. Moreover, the Long peptide reaction result in assay [4] is reported as “No”.

For TVDGSTFSV [CA02 92], the CTL induction entry in assay [1] is “Yes”.

Turning to AWSYGIVMW [CA24 123], the CTL induction entry in assay [3] was “Yes”.

Consider AYYPEDLFI [A24-GPC3-11], for which the CTL induction result in assay [3] was “Yes”. Further, the Long peptide reaction result in assay [4] is given as “No”.

Turning to TMNDSLSKI [CA0235], the CTL induction result in assay [1] is reported as “Yes”. Also, the Long peptide reaction entry in assay [2] was “No”.

For KLDVGNIVL [LAT1-A02-3], the CTL induction result in assay [1] is reported as “Yes”.

On to STIHDSIQYV [A02-GPC3-14], for which, in assay [1], the CTL induction result is on record as “Yes”. In addition, the Long peptide reaction entry in assay [2] is reported as “Yes”.

Consider FLRRGPFEL [CA02 21], for which, in assay [1], the CTL induction result is “Yes”.

Regarding TIHDSIQYV [CA02 13], the CTL induction result in assay [1] was “Yes”. Besides, in assay [2], the Long peptide reaction entry was “Yes”.

For the sequence DYIGPCKYI [CA24 54], the CTL induction entry in assay [3] is recorded as “Yes”.

With RLEAGDHPV [CA02 52], the CTL induction result in assay [1] is given as “Yes”. Besides, in assay [2], the Long peptide reaction result was “No”.

As for “PFSKVLTFL [CA24 22, hHSP105α HLA-A*24:02 short peptide]”, the CTL induction entry in assay [3] is listed as “peptide-specific IFN-γ production had been found”.

ELFDSLFPV [CA02 12]: the CTL induction result in assay [1] is recorded as “Yes”.
